Results: ChEMBL document CHEMBL1127056, “3-(Alkylamino)-4H-pyrido[4,3-e]-1,2,4-thiadiazine 1,1-dioxides as powerful inhibitors of insulin release from rat pancreatic B-cells: a new class of potassium channel openers?” (1993)

How the values were obtained:
Format in all cases: functional
Rattus norvegicus [1] = species on record: Rattus norvegicus; experiment: Inhibition of insulin release from rat pancreatic islets incubated in the presence of glucose ([…]) at concentration of 100 uM
Rattus norvegicus [2] = species on record: Rattus norvegicus; experiment: Inhibition of insulin release from rat pancreatic islets incubated in the presence of glucose ([…]) at concentration of 50 uM
Rattus norvegicus [3] = species on record: Rattus norvegicus; experiment: Inhibition of insulin release from rat pancreatic islets incubated in the presence of glucose ([…]) at concentration of 10 uM
Rattus norvegicus [4] = species on record: Rattus norvegicus; experiment: Inhibition of insulin release from rat pancreatic islets incubated in the presence of glucose ([…]) at concentration of 1 uM
Rattus norvegicus [5] = species on record: Rattus norvegicus; experiment: Inhibition of insulin release from rat pancreatic islets incubated in the presence of glucose ([…]) at concentration of 500 uM

Q: What does the source list for `CCC(C)NC1=NS(=O)(=O)c2cnccc2N1` (configuration not stated)?
A: Secretion (Rattus norvegicus [1]): 7.1%; Secretion (Rattus norvegicus [2]): 9.4%; Secretion (Rattus norvegicus [3]): 49%; Secretion (Rattus norvegicus [4]): 97.8%; Secretion (Rattus norvegicus [5]): 9.4%

Q: Which results are given for `CC(C)C(C)NC1=NS(=O)(=O)c2cnccc2N1` (configuration not stated)?
A: Secretion (Rattus norvegicus [1]): 8.8%; Secretion (Rattus norvegicus [2]): 8.6%; Secretion (Rattus norvegicus [3]): 13.7%; Secretion (Rattus norvegicus [4]): 70.5%; Secretion (Rattus norvegicus [5]): 8.4%

Q: Which Secretion (Rattus norvegicus [2]) does the source give for `O=S1(=O)N=C(NN2CCOCC2)Nc2ccncc21` here?
A: 94.8%

Q: Which Secretion (Rattus norvegicus [1]) does the source give for `CC(C)C(C)NC1=NS(=O)(=O)c2cc(Cl)ccc2N1` (configuration not stated) here?
A: 6.5%

Q: And the Secretion (Rattus norvegicus [2])?
A: 11%

Q: What about the Secretion (Rattus norvegicus [3]) of the same compound?
A: 62.7%

Q: What about the Secretion (Rattus norvegicus [4]) of the same compound?
A: 88.9%

Q: And the Secretion (Rattus norvegicus [5])?
A: 4.6%

Q: For `NC1=NS(=O)(=O)c2cnccc2N1`, which Secretion (Rattus norvegicus [2]) is on record?
A: 104.1%

Q: How did the Secretion (Rattus norvegicus [1]) turn out when `CCCCNC1=NS(=O)(=O)c2cnccc2N1` was run?
A: 32.5%

Q: And the Secretion (Rattus norvegicus [2])?
A: 38.6%

Q: What about the Secretion (Rattus norvegicus [3]) of the same compound?
A: 82%

Q: And the Secretion (Rattus norvegicus [4])?
A: 83.7%

Q: And the Secretion (Rattus norvegicus [5])?
A: 9%

Q: For `CCCNC1=NS(=O)(=O)c2cnccc2N1`, which Secretion (Rattus norvegicus [1]) is on record?
A: 21.9%

Q: And the Secretion (Rattus norvegicus [2])?
A: 57.7%

Q: And the Secretion (Rattus norvegicus [3])?
A: 87.3%

Q: And the Secretion (Rattus norvegicus [4])?
A: 97.1%

Q: What about the Secretion (Rattus norvegicus [5]) of the same compound?
A: 9%

Q: Which results are given for `O=S1(=O)N=C(NC2CCCCC2)Nc2ccncc21`?
A: Secretion (Rattus norvegicus [1]): 18.4%; Secretion (Rattus norvegicus [2]): 40.5%; Secretion (Rattus norvegicus [3]): 64.4%; Secretion (Rattus norvegicus [4]): 74.4%; Secretion (Rattus norvegicus [5]): 6.2%

Q: How did the Secretion (Rattus norvegicus [1]) turn out when `CC(C)NC1=NS(=O)(=O)c2cnccc2N1` was run?
A: 18.4%

Q: What about the Secretion (Rattus norvegicus [2]) of the same compound?
A: 42.5%

Q: What about the Secretion (Rattus norvegicus [3]) of the same compound?
A: 55.3%

Q: And the Secretion (Rattus norvegicus [4])?
A: 110.3%

Q: What about the Secretion (Rattus norvegicus [5]) of the same compound?
A: 8.8%

Q: With `O=S1(=O)N=C(NC2CCCC2)Nc2ccncc21` as the compound, how does the Secretion (Rattus norvegicus [1]) read?
A: 9.2%

Q: What about the Secretion (Rattus norvegicus [2]) of the same compound?
A: 31.5%

Q: What about the Secretion (Rattus norvegicus [3]) of the same compound?
A: 71.1%

Q: What about the Secretion (Rattus norvegicus [4]) of the same compound?
A: 82.8%

Q: And the Secretion (Rattus norvegicus [5])?
A: 4.4%

Q: How did the Secretion (Rattus norvegicus [1]) turn out when `CC(C)CNC1=NS(=O)(=O)c2cnccc2N1` was run?
A: 10.2%

Q: What about the Secretion (Rattus norvegicus [2]) of the same compound?
A: 23.4%

Q: And the Secretion (Rattus norvegicus [3])?
A: 71.8%

Q: And the Secretion (Rattus norvegicus [4])?
A: 84.2%

Q: What about the Secretion (Rattus norvegicus [5]) of the same compound?
A: 9.7%

Q: How did the Secretion (Rattus norvegicus [1]) turn out when `CC1=Nc2ccc(Cl)cc2S(=O)(=O)N1` [DIAZOXIDE] was run?
A: 14%

Q: And the Secretion (Rattus norvegicus [2])?
A: 28.8%

Q: And the Secretion (Rattus norvegicus [3])?
A: 70%

Q: And the Secretion (Rattus norvegicus [4])?
A: 78.9%

Q: And the Secretion (Rattus norvegicus [5])?
A: 8.5%
